≈ marks a conversion by molar mass, not a printed value. Read-outs that look alike come from different tables or passages of the source.
What was measured:
[1] = Pharmacokinetic study in male rats, single oral dose in 80% PEG400; settings: rat, in vivo
[2] = Solubility in cyclodextrins; type: physicochemical; settings: for solubility: aqueous with cosolvent or surfactant or cyclodextrin, thermodynamic from solid
[3] = test system: Staphylococcus aureus ATCC 29213; assay: Mouse thigh abscess infection model; type: in vivo; settings: for ED50: Staphylococcus aureus, ATCC29213; for ED50 / ED80 / Static dose: mice, oral, Inhibitory Effect Sigmoid Emax Model fit; for Average Change logCFU/thigh: neutropenic mice, 6 hours post dose, vs time 0 controls
Protocol: Compound A (free base) unmilled, and the tosylate salt of Compound A milled were tested in the same mouse thigh abscess model following single oral doses in 0.5% carboxymethyl cellulose. Mice (6 per dosing group) were rendered neutropentic, and the thigh of each mouse was injected with 1×10^5 colony forming units (CFU) of Staphylococcus aureus ATCC 29213. Two hours post infection, mice were dosed with the drug orally, and at 6 hours post dose, bacterial viable counts where determined from the thighs of all the mice. Efficacy was calculated as the average change in CFU/thigh compared to time 0 (time of dosing) controls.

[4] = Oral pharmacokinetic study in male rats (oral gavage); type: in vivo, rat; settings: for AUC(0-t) / Cmax: male, CD, rat, po
Protocol: Compound A (free base) and B (toslyate monohydrate salt of compound A) was administered to male rats, strain CD®, via oral gavage using 1% Poloxamer 407 or 0.5% carboxymethyl cellulose (CMC) as the vehicle (Table 1). All doses were calculated as free base equivalents.
For each dosing group blood was collected from 3 animals at each of the following time points: 0, 0.5, 1, 2, 4, 6, 8, 10, 12, 16, 24, and 48 hours post dose. Plasma was prepared using standard techniques with sodium heparin as anti-coagulant. The Compound A and B plasma concentrations were determined using a GLP-validated LC/MS/MS bioanalytical method. Pharmacokinetic analyses were performed using PK Solutions 2.0™ or WinNonLin 5.1.

[5] = male, po, 30 mg/kg, single oral dose 30 mg/kg in 80% PEG400, particle state Milled
[6] = male, po, 30 mg/kg, single oral dose 30 mg/kg in 80% PEG400, particle state Unmilled
[7] = single oral dose 0.3 mg/kg in 0.5% carboxymethyl cellulose
[8] = single oral dose 1 mg/kg in 0.5% carboxymethyl cellulose
[9] = single oral dose 3 mg/kg in 0.5% carboxymethyl cellulose
[10] = single oral dose 10 mg/kg in 0.5% carboxymethyl cellulose
[11] = single oral dose 30 mg/kg in 0.5% carboxymethyl cellulose
[12] = plasma, 10 mg/kg, 10 mg/kg (free base equivalents), 0.5% CMC
[13] = plasma, 10 mg/kg, 10 mg/kg (free base equivalents), 1% Poloxamer 407
[14] = plasma, 30 mg/kg, 30 mg/kg (free base equivalents), 0.5% CMC
[15] = plasma, 75 mg/kg, 75 mg/kg (free base equivalents), 0.5% CMC
[16] = single oral dose 30 mg/kg in 80% PEG400, particle state Unmilled
[17] = in vivo, 10 mg/kg, 10 mg/kg (free base equivalents), 0.5% CMC
[18] = in vivo, 10 mg/kg, 10 mg/kg (free base equivalents), 1% Poloxamer 407
[19] = in vivo, 30 mg/kg, 30 mg/kg (free base equivalents), 0.5% CMC
[20] = in vivo, 75 mg/kg, 75 mg/kg (free base equivalents), 0.5% CMC

`Cc1c(CN(C)C(=O)/C=C/c2cnc3c(c2)CCC(=O)N3)oc2ccccc12` [Free base, (E)-N-methyl-N-((3-methylbenzofuran-2-yl)methyl)-3-(7-oxo-5,6,7,8-tetrahydro-1,8-naphthyridin-3-yl)acrylamide] gave an AUC(0-inf) [1, 5] of 6570 ng·h/mL, an AUC(0-t) [1, 5] of 6370 ng·h/mL and a Cmax [1, 5] of 1970 ng/mL. The half-life [1, 5] was 330 min, the AUC(0-inf) [1, 6] was 1260 ng·h/mL and the AUC(0-t) [1, 6] was 1160 ng·h/mL. For the same compound, the Cmax [1, 6] was 421 ng/mL, the half-life [1, 6] was 120 min and the solubility ([2]; 10% hydroxypropyl beta-cyclodextrin, cyclodextrin concentration 10%, shake-flask technique, read-out: Solubility in Hydroxypropyl Beta-Cyclodextrin) was 20 µg/mL (≈ 53.3 µM). It also gave a solubility ([2]; 10% hydroxypropyl beta-cyclodextrin, cyclodextrin concentration 10%, evaporating an ethanol/water/DMA blend of cyclodextrin and API and reconstituting with water, read-out: Solubility in Hydroxypropyl Beta-Cyclodextrin) of 9 µg/mL (≈ 24 µM), a solubility ([2]; 10% sulfobutyl ether beta-cyclodextrin, cyclodextrin concentration 10%, read-out: Solubility in Sulfobutyl Ether Beta-Cyclodextrin) of 7 µg/mL (≈ 18.6 µM) and an ED50 [3] of 4 mg/kg. For the same compound, the ED80 [3] was 8.8 mg/kg, the Static dose [3] was 10.5 mg/kg and the “Average Change logCFU/thigh” value [3, 7] was 1.6 logCFU/thigh. The “Average Change logCFU/thigh” value [3, 8] was 1.35 logCFU/thigh, the “Average Change logCFU/thigh” value [3, 9] was 0.3 logCFU/thigh and the “Average Change logCFU/thigh” value [3, 10] was 0.36 logCFU/thigh. The “Average Change logCFU/thigh” value [3, 11] was −0.29 logCFU/thigh, the AUC(0-t) [4, 12] was 980 ng·h/mL and the Cmax [4, 12] was 163 ng/mL. For the same compound, the AUC(0-t) [4, 13] was 883 ng·h/mL, the Cmax [4, 13] was 157 ng/mL and the AUC(0-t) [4, 14] was 1620 ng·h/mL. The Cmax [4, 14] was 176 ng/mL, the AUC(0-t) [4, 15] was 2370 ng·h/mL and the Cmax [4, 15] was 246 ng/mL.

`CS(=O)(=O)O.Cc1c(CN(C)C(=O)/C=C/c2cnc3c(c2)CCC(=O)N3)oc2ccccc12` [Mesylate, (E)-N-methyl-N-((3-methylbenzofuran-2-yl)methyl)-3-(7-oxo-5,6,7,8-tetrahydro-1,8-naphthyridin-3-yl)acrylamide methane sulfonate] showed an AUC(0-inf) [1, 5] of 6040 ng·h/mL, an AUC(0-t) [1, 5] of 5770 ng·h/mL and a Cmax [1, 5] of 884 ng/mL. It also gave a half-life [1, 5] of 300 min.

With `Cc1c(CN(C)C(=O)/C=C/c2cnc3c(c2)CCC(=O)N3)oc2ccccc12.O=S(=O)(O)O` [Sulfate, (E)-N-methyl-N-((3-methylbenzofuran-2-yl)methyl)-3-(7-oxo-5,6,7,8-tetrahydro-1,8-naphthyridin-3-yl)acrylamide sulfate] the AUC(0-inf) [1, 16] was 9970 ng·h/mL, the AUC(0-t) [1, 16] was 9480 ng·h/mL and the Cmax [1, 16] was 1940 ng/mL. The half-life [1, 16] was 342 min.

In the case of `Cc1c(CN(C)C(=O)/C=C/c2cnc3c(c2)CCC(=O)N3)oc2ccccc12.Cc1ccc(S(=O)(=O)O)cc1.O` [Tosylate monohydrate milled, (E)-N-methyl-N-((3-methylbenzofuran-2-yl)methyl)-3-(7-oxo-5,6,7,8-tetrahydro-1,8-naphthyridin-3-yl)acrylamide Tosylate Monohydrate], the solubility ([2]; cyclodextrin concentration 10%, read-out: Solubility in Hydroxypropyl Beta-Cyclodextrin) is reported as 26 µg/mL, the solubility ([2]; cyclodextrin concentration 10%, read-out: Solubility in Sulfobutyl Ether Beta-Cyclodextrin) is reported as 67 µg/mL and the solubility ([2]; cyclodextrin concentration 40%, read-out: Solubility in Hydroxypropyl Beta-Cyclodextrin) is reported as 370 µg/mL. The solubility ([2]; cyclodextrin concentration 40%, read-out: Solubility in Sulfobutyl Ether Beta-Cyclodextrin) was 4000 µg/mL, the “Solubility relative to the free base milled form” value ([2]; sulfobutyl ether beta-cyclodextrin, cyclodextrin concentration 10%) was “approximately 10 fold” and the “Ratio of tosylate monohyrate/free base AUClast” value ([4]; 10 mg/kg, 0.5% CMC) was 2.1. For the same compound, the “Ratio of tosylate monohyrate/free base Cmax” value ([4]; 10 mg/kg, 0.5% CMC) was 2.1, the “Ratio of tosylate monohyrate/free base AUClast” value ([4]; 10 mg/kg, 1% Poloxamer 407) was 3.0 and the “Ratio of tosylate monohyrate/free base Cmax” value ([4]; 10 mg/kg, 1% Poloxamer 407) was 2.2. For the same compound, the “Ratio of tosylate monohyrate/free base AUClast” value ([4]; 30 mg/kg, 0.5% CMC) was 2.3, the “Ratio of tosylate monohyrate/free base Cmax” value ([4]; 30 mg/kg, 0.5% CMC) was 2.5 and the “Ratio of tosylate monohyrate/free base AUClast” value ([4]; 75 mg/kg, 0.5% CMC) was 1.8. For the same compound, the “Ratio of tosylate monohyrate/free base Cmax” value ([4]; 75 mg/kg, 0.5% CMC) was 2.4, the AUC(0-t) [4, 17] was 2040 ng·h/mL and the Cmax [4, 17] was 347 ng/mL. For the same compound, the AUC(0-t) [4, 18] was 2660 ng·h/mL, the Cmax [4, 18] was 348 ng/mL and the AUC(0-t) [4, 19] was 3680 ng·h/mL. For the same compound, the Cmax [4, 19] was 434 ng/mL, the AUC(0-t) [4, 20] was 4260 ng·h/mL and the Cmax [4, 20] was 595 ng/mL.

`Cc1c(CN(C)C(=O)/C=C/c2cnc3c(c2)CCC(=O)N3)oc2ccccc12.Cc1ccc(S(=O)(=O)O)cc1` [Tosylate, (E)-N-methyl-N-((3-methylbenzofuran-2-yl)methyl)-3-(7-oxo-5,6,7,8-tetrahydro-1,8-naphthyridin-3-yl)acrylamide p-toluene sulfonate] showed an AUC(0-inf) [1, 5] of 9510 ng·h/mL, an AUC(0-t) [1, 5] of 9460 ng·h/mL and a Cmax [1, 5] of 1610 ng/mL. The half-life [1, 5] was 210 min, the ED50 [3] was 1.3 mg/kg and the ED80 [3] was 3.4 mg/kg. The Static dose [3] was 2.4 mg/kg, the “Average Change logCFU/thigh” value [3, 7] was 1.31 logCFU/thigh and the “Average Change logCFU/thigh” value [3, 8] was 1.08 logCFU/thigh. For the same compound, the “Average Change logCFU/thigh” value [3, 9] was −0.42 logCFU/thigh, the “Average Change logCFU/thigh” value [3, 10] was −0.62 logCFU/thigh and the “Average Change logCFU/thigh” value [3, 11] was −0.77 logCFU/thigh.

From patent publication US8263613B2, “Salts, prodrugs and polymorphs of fab I inhibitors” (Affinium Pharmaceuticals, Inc., priority 2007, dated 2012)
